# Source: US8436049B2, “Uses of pentamidine and related compounds” (State of Oregon Acting By and Through the State Board of …, priority 2008, dated 2013)
# Where “and” joins values, the source holds several entries; their conditions need not be identical. Identical values can stand only once.
# Tests used:
# [1] = mouse, in vivo
# Protocol: Mouse handling and experimental procedures were conducted in accordance with the Association for Assessment and Accreditation of Laboratory Animal Care. HSA^LR transgenic mice in line 20b expressing human skeletal actin mRNA with ˜250 CUG repeats in the 3′ UTR were used (Mankodi et al., Science 289:1769-1772, 2000). Age- and gender-matched HSA^LR mice were injected intraperitoneally with pentamidine or saline (control). For a low-dose regimen, 25 mg/kg of pentamidine was administrated twice daily for 5 days. For a higher-dose regimen, 40 mg/kg of pentamidine was injected once daily for 7 days. Mice were sacrificed one day after the last injection, and vastus muscle was obtained for splicing analysis. […] The PCR products were analyzed on agarose gels and scanned with a laser fluorimager (Typhoon, GE Healthcare, Piscataway, N.J.). Differences between the two groups were evaluated by Student's t-test.
# The ability of pentamidine to rescue mis-splicing in a mouse model (HSA^LR) where CUG repeats are expressed was tested. Pentamidine was administered by intraperitoneal injection in two dosage regimens, and mis-splicing of the Clc-1 and Serca1 pre-mRNAs was measured.
# [2] = test system: PLEKHH2 minigene in HeLa cells; test: PLEKHH2 minigene splicing in HeLa cells; type: cell-based; conditions: with or without CUG repeats
# Protocol: HeLa cells were grown in monolayers in DMEM with GlutaMAX™ (Gibco, Carlsbad, Calif.) and supplemented with 10% fetal bovine serum. Approximately 2.0 (±0.2)×10^5 cells were plated in 6 well plates and transfected 18-20 hours later at 70-90% confluency. 1 μg of plasmid was transfected into each well of cells, using 5 μL of […] (Invitrogen) according to the manufacturer's protocols. For co-transfection, 1 μg of total plasmid was transfected, at 500 ng of each construct. Test compounds were added 4 hours after transfection, when the media was changed. Cells were harvested 18-22 hours after transfection using TrypLE™ reagent (Gibco).
# Immediately following harvesting, RNA was isolated from the cell pellets using an RNeasy® kit (Qiagen, Valencia, Calif.). 500 ng of isolated RNA was DNased with RQI DNase (Promega, Madison, Wis.) according to manufacture's protocol. 100 ng of DNAsed RNA was reverse transcribed with Superscript® II (Invitrogen, Carlsbad, Calif.) and a cTNT-specific reverse primer according to manufacturer's protocols. 30 ng of the reverse transcription reaction was subjected to 22-25 rounds of PCR amplification using cTNT specific primers spiked with a forward primer 5′ end-labeled with [γ-^32P]ATP. […] The gel was subsequently autoradiographed and quantitation of the radioactive bands was performed using ImageQuant® software. […]
# MBNL-CUG RNA complex = target: T1, MBNL-CUG RNA complex (Homo sapiens, UniProt Q9NR56); test: Gel shift assay, disruption of MBNL binding to short CUG repeat RNA
# T1 construct: Both the full length MBNL and MBNL (1-260) constructs were cloned using BamHI and NotI restriction sites; GST (N, cleaved yes); made in house; host or cells: E. coli BL21-Star
# T1 sequence (Q9NR56 1-382 isoform Q9NR56-5): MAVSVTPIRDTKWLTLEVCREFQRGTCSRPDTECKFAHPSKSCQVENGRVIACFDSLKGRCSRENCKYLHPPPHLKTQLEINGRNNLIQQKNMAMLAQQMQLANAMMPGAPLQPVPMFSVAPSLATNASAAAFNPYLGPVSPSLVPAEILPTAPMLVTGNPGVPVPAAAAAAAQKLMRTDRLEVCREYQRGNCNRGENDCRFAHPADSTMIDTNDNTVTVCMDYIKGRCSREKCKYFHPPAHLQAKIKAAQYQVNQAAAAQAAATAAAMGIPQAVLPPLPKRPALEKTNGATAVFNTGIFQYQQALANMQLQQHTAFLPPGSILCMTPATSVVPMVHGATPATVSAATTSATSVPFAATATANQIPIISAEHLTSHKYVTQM
# Protocol: MBNL1 (MBNL) was PCR amplified and was cloned into GST fusion vector pGEX-6P-1 (GE Healthcare, Piscataway, N.J.), using DNA encoding a MBNL isoform with amino acids 1-382). Both the full length MBNL and MBNL (1-260) constructs were cloned using BamHI and NotI restriction sites. Using BL21-Star expression cells (Invitrogen, Carlsbad, Calif.), protein expression was induced with 0.25 mM IPTG at an OD600 of about 0.5-1, for 3-4 hours at 37° C. Cells were lysed in 30 ml of buffer (500 mM NaCl, 25 mM Tris pH 7.5, 10 mM β-mercaptoethanol (BME) and 5% glycerol) using 1 mg/ml of lysozyme, followed by sonication (3×30 seconds). Cell extract was centrifuged for 15 minutes at 17,000 rpm, and lysate which contained GST-MBNL was collected. GST-MBNL was bound to GST affinity beads for 30 minutes at 4° C. […] The protein was then run over an anion exchange (Q) column. […] MBNL was collected in the column flow through, concentrated and dialyzed into storage buffer (30% glycerol, 300 mM NaCl, 20 mM Tris pH 7.5, 5 mM BME) and stored at −80° C. Aliquots were removed from −80° C. and temporarily placed at −20° C. until used for an experiment.
# All RNA substrates that were radiolabeled were ordered from IDT DNA (Coralville, Iowa), and 5′ end-labeled using [γ-^32P]ATP. All radiolabeled RNAs were purified on 8% polyacrylamide denaturing gels.
# Solutions for the protein-RNA binding experiments contained 125 mM NaCl, 5 mM MgCl2, 20 mM Tris (pH 7.5), 7.5% glycerol, 2 mg/ml bovine serum albumin, and 0.1 mg/ml heparin. Prior to incubation, RNA substrates were annealed by incubation at 95° C. for 2 minutes and then placed directly on ice for 20 minutes in 66 mM NaCl, 6.7 mM MgCl2, and 27 mM Tris (pH 7.5). Protein was then added to the RNA in the presence or absence of the small molecule. The binding reaction was carried out in a 10 μL volume and was incubated for 10 minutes at room temperature before 2-4 μL were loaded on a pre-chilled 4° C. gel. RNA and RNA-protein complexes were separated on 3% acrylamide (37.5:1), 0.3% agarose (low melting point), 0.5× Tris-Borate (TB) gels, run for approximately 2-3 hours at 4° C. at 25-50 volts. Gels were dried and autoradiographed. For the neomycin B and CUG8 gel shift, an 8% acrylamide (29:1), 0.5×TB gel was used and run for 3 hours at 4° C. at 175 volts. All small molecules were dissolved in either water or ethanol, according to the manufacturer's guidance for solubility.
# For binding curves, gels were quantified using ImageQuant® software (Molecular Dynamics, Piscataway, N.J.). The percent RNA bound was determined by taking the ratio of RNA-protein complex to total RNA, per lane. Any counts in the well were discarded as it was unapparent if the RNA was bound by protein, small molecule or was in an aggregate. Binding curves were graphed using KaleidaGraph software (Synergy Software, Reading, Pa.). For the neomycin B and CUG8 gel shift, the apparent Kd was determined using Equation 1, where Y=fraction bound, m0=small molecule concentration, m1=total RNA concentration, and m2=Kd.
# For determining the EC50, Equation 3 was used, where m0=small molecule concentration, m1=EC50, m2=Hill coefficient, and m3=fraction MBNL bound without small molecule present. Y=m3/[1+(m0/m1)^m2] Equation 3 Results
# [3] = test system: Clc-1 pre-mRNA splicing, HSA^LR transgenic mice; test: Clc-1 exon 7a splicing in vastus muscle of HSA^LR mouse model of DM; type: in vivo; conditions: intraperitoneal, saline HSA^LR control 46±6%, normal mice 94±1%
# Protocol: Mouse handling and experimental procedures were conducted in accordance with the Association for Assessment and Accreditation of Laboratory Animal Care. HSA^LR transgenic mice in line 20b expressing human skeletal actin mRNA with ˜250 CUG repeats in the 3′ UTR were used (Mankodi et al., Science 289:1769-1772, 2000). Age- and gender-matched HSA^LR mice were injected intraperitoneally with pentamidine or saline (control). For a low-dose regimen, 25 mg/kg of pentamidine was administrated twice daily for 5 days. For a higher-dose regimen, 40 mg/kg of pentamidine was injected once daily for 7 days. Mice were sacrificed one day after the last injection, and vastus muscle was obtained for splicing analysis. […] PCR amplification was carried out for 22-24 cycles with the following primer pairs: Clc-1 forward, [sequence] (SEQ ID NO: 7), and reverse, [sequence] (SEQ ID NO: 8); Serca1 forward, [sequence] (SEQ ID NO: 9), and reverse, [sequence] (SEQ ID NO: 10). The PCR products were analyzed on agarose gels and scanned with a laser fluorimager (Typhoon, GE Healthcare, Piscataway, N.J.). Differences between the two groups were evaluated by Student's t-test.
smiles,measurement,setting,value
N=C(N)c1ccc(OCCCCCOc2ccc(C(=N)N)cc2)cc1 [pentamidine],Toxicity in mice,[1],substantial toxicity
same,Effect on PLEKHH2 minigene splicing,[2],Splicing was unchanged
same,Disruption of the MBNL-CUG interaction,"MBNL-CUG RNA complex; gel shift screen, increasing amounts of small molecule",disrupt the MBNL-CUG interaction at micromolar concentrations
same,EC50,"MBNL-CUG RNA complex; gel shift, short CUG repeat RNA (CUG4), read-out: EC50 for disruption of MBNL binding to CUG repeat construct",~58 µM and 58 µM
same,Clc-1 exon 7a exclusion,[3]; 25 mg/kg twice daily for 5 days,63±3%
same,Clc-1 exon 7a exclusion,[3]; 40 mg/kg once daily for 7 days,66±4%
